The record followed here is patent US6689811B2, “Method of using caffeic acid phenethyl ester and analogs thereof as radiation sensitizers” (Wake Forest University, priority 2001, dated 2004).

The test system of test [1] is Akt phosphorylation (Akt-Pser473). The test is described as follows: Akt phosphorylation immunoblot in RKO cells treated with CAPE. In kind it is cell-based. How it is done:
RKO cells were treated with low serum (LS) (0.1%) for 12 h, or low serum for 12 h followed by replacement of media with 10% serum (LS+S), in the absence (EtOH) or presence of CAPE. Two different exposures (light, dark) of the immunoblot using the anti-phosphoAkt specific antibody are shown.
(§1) 35(9): p. 790; Giri, D. and M. Ittmann, Hum Pathol, 1999. 30(4): p. 419-24; Davies, M. A., et al., Cancer Res, 1999. 59(11): p. 2551-6). Since PTEN is mutated in PC-3 cells, Akt phosphorylation levels are elevated compared to normal prostatic cells, and therefore PC-3 cells are a good model to study the regulation of Akt by CAPE and propolis.
Since Akt phosphorylation levels reflect a balance between active phosphorylation (mainly by PI-3 kinase) and dephosphorylation (by a yet unidentified phosphatase), the decrease in Akt phosphorylation could be an activation of a phosphatase rather than inhibition of a kinase. […] Thus, we performed CAPE treatments in the presence of high (10%) and low (0.1%) serum levels.

Test [2] has as its system colorectal carcinoma cells. The test is described as follows: Survival fraction of colorectal carcinoma cells, oxaliplatin versus CAPE and oxaliplatin. In kind it is cell-based. The settings on record: regimen of CAPE and oxaliplatin compared to oxaliplatin alone (FIG. 6). The source says:
FIG. 6 is a graph depicting the survival fraction of colorectal carcinoma cells when the cells are given a regimen of oxaliplatin as compared to a regimen of CAPE and oxaliplatin. As stated above, CAPE may be combined with other cancer therapies. One such therapy includes the use of oxaliplatin. Oxaliplatin is a chemotherapy drug, and also an antineoplastic agent, that is generally used in late-stage clinical development for colorectal cancer. Oxaliplatin is a platinum chemotherapy drug, similar to cisplatin and carboplatin. At the center of the drug molecule is an atom of platinum. Oxaliplatin is generally a clear liquid that is given through a drip into a vein (intravenous infusion). The infusion usually takes about 2 hours. Oxaliplatin can be given every 2 weeks or every 3 weeks as a course of treatment.

Another test deals with HT-29 xenograft tumors. The test is described as follows: HT-29 tumor xenografts on the flanks of nude mice, CAPE with or without IR. The test is classed as in vivo. How it is done:
FIG. 3 is a photograph showing representative animals where CAPE radiosensitizes HT-29 xenograft tumors to IR. HT-29 cells were grown as tumor xenografts on the flanks of nude mice. When the tumors reached approximately 80 mm^3, one group of mice was treated with 0.5 ml of ethanol (EtOH) (0.1%) while the other group was treated with a single injection of CAPE (100 μg/kg). Twenty-four hours later, the tumors on the left flanks were given a single dose of IR (5 Gy). The animals were returned to their cages and tumor measurements were taken every 7 days for the following 4 weeks. The animal on the left was treated with ethanol (EtOH) (the carrier for CAPE), while the animal on the right was treated with 50 mg/kg CAPE. The tumors on the left side of the animal (right side of the picture) was treated with ionizing radiation (IR) (5Gy). Pictures were taken 4 weeks following IR. FIG. 4 is graphical representation of results from all tumors. Control (N=7), CAPE (N=5), IR (N=6) and CAPE +IR (N=4). Error bars represent ±S.E.M. The different number of tumors measured reflects the failure of some of the tumors to grow during the first week prior to treatment. FIG. 5 is a bar graph illustrating the number of days required for a tumor to triple in volume. […] FIG. 4 illustrates that tumors treated with both CAPE and IR were reduced in size by approximately 90% 4 weeks after treatment.

The test system of another test is RKO cells. The test is described as follows: Clonogenic survival assay with CAPE and ionizing radiation, RKO cells. In kind it is cell-based. The method, then: (§2) FIGS. 2A-B are graphs illustrating that CAPE sensitizes colorectal carcinoma cells RKO (A) and HT-29 cells (B) to treatments with IR. RKO (A) and HT-29 (B) cells were treated with CAPE (5 μg/ml) for the indicated times, irradiated and plated for clonogenic survival assays. CAPE treatment alone induced 10-20% reduction in clonogenic survival. Results are normalized to account for this reduction. We have also tested the ability of CAPE to sensitize cells to the cytotoxic effects of ionizing radiation. […] The Dose-enhancement ratio (DER) values at survival fraction (SF) 0.1 for pretreatment with CAPE for 24 h were 1.81 for RKO cells and a 1.68 for HT-29 cells. The radiosensitizing effect of CAPE was even more pronounced in vivo.

A further test has as its system HT-29 cells. Briefly: Clonogenic survival assay with CAPE and ionizing radiation, HT-29 cells. The test is classed as cell-based. The method, then: as §2
Test [3] has as its system Akt phosphorylation (Akt-Pser473). Briefly: Akt phosphorylation immunoblot in PC-3 cells treated with CAPE. In kind it is cell-based.
Description: as §1
A general note: Immunoblotting shows a protein as a band on a membrane.

Where [4] appears, read: immunoblot with anti-Akt antibody (FIG. 1A).
Setting [5] is: increasing doses of CAPE, immunoblot (FIG. 1A).
The mark [6] stands for this setting: pretreatment with CAPE for 24 h (5 μg/ml), then IR.

For the compound `O=C(/C=C/c1ccc(O)c(O)c1)OCCc1ccccc1` [CAPE, caffeic acid phenethyl ester], the “levels of Akt (anti-Akt antibody)” value in test [1] (setting [4]) and in test [3] (setting [4]) was “remain unchanged” in each case. Moreover, the “levels of Akt phosphorylation (Akt-Pser473)” value in test [1] (setting [5]) and in test [3] (setting [5]) was “reduces the levels of Akt phosphorylation” in each case. The “rephosphorylation of Akt when serum was added back” value in test [1] (low serum 12 h then 10% serum, in presence of CAPE (FIG. 1B)) was “did not inhibit rephosphorylation of Akt”. Also, in test [1] (low serum (0.1%) for 12 h plus CAPE (FIG. 1B)), the “Akt phosphorylation with CAPE in low serum” value is “undetectable levels”. The “survival fraction of cancerous cells, CAPE plus oxaliplatin” value in test [2] is given as “decrease in the survival fraction”. Further, the “number of days required for tumor to triple in volume, CAPE plus IR” value in the test with HT-29 xenograft tumors (CAPE combined with IR (FIG. 5)) is “failed to triple in volume”. The “effect on tumor growth, CAPE alone” value with HT-29 xenograft tumors (single dose (50 mg/kg) CAPE, no IR, HT-29 xenografts in nude mice) is reported as “minimal effect on tumor growth”. For the same compound, the “reduction in tumor size, CAPE and IR” value in the test with HT-29 xenograft tumors (single injection of CAPE, IR 5 Gy 24 h later, 4 weeks after treatment (FIG. 4)) is reported as “approximately 90%”. For the same compound, the “reduction in clonogenic survival by CAPE treatment alone” value in the test on RKO cells (CAPE 5 μg/ml, no IR) was 10-20%; in the test with HT-29 cells (CAPE 5 μg/ml, no IR) it was 10-20%. The “sensitization to IR treatments” value with RKO cells (pretreatment with CAPE for 12 h or 24 h (FIG. 2A)) and in the test with HT-29 cells (pretreatment with CAPE for 12 h or 24 h (FIG. 2B)) was “significant sensitization” throughout. For the same compound, the “Dose-enhancement ratio (DER) at survival fraction (SF) 0.1” value is on record as 1.81 in the test on RKO cells (setting [6]) and 1.68 in the test on HT-29 cells (setting [6]).
